Results from PMC8422859, “A Novel Oral Arginase 1/2 Inhibitor Enhances the Antitumor Effect of PD-1 Inhibition in Murine Experimental Gliomas by Altering the Immunosuppressive Environment” (Frontiers in Oncology, 2021).
pIC50: −log10 of the molar value. Entries after “also recorded” stand apart in the source; their conditions may differ.

What was measured:
recombinant human ARG1 = target: T1, recombinant human ARG1 (Homo sapiens, UniProt P05089); test: Recombinant arginase activity assay, hARG1; format: biochemical; conditions: 1 h at 37°C, pH 7.4, 10 mM L-arginine, urea detection; read-out: Inhibition of recombinant hARG1: IC50
T1 construct: made in house; host or cells: E. coli
T1 sequence (P05089 1-322): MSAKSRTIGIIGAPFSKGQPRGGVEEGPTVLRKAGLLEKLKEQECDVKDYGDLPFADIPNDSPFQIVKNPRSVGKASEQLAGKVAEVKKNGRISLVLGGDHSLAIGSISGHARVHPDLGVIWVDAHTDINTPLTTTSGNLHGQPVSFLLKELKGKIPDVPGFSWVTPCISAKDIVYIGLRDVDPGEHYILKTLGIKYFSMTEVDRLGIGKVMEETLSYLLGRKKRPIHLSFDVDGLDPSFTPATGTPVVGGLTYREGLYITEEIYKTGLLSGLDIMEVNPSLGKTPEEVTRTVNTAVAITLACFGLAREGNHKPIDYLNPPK
Procedure: The inhibitory activity towards hARG1 and hARG2 enzymes was assessed using recombinant enzymes biosynthesized using a prokaryotic expression system (E. coli) and purified by fast protein liquid chromatography (FPLC). Briefly, recombinant enzymes were incubated with the tested compounds for 1 h at 37°C in the reaction buffer (100 mM sodium phosphate buffer, 130 mM NaCl, 1 mg/mL BSA, pH 7.4) containing substrate (10 mM L-arginine hydrochloride) and cofactor (200 µM MnCl2). The assay is based on the detection of urea, which is generated during the conversion of L-arginine into L-ornithine catalyzed by arginases. To visualize the product, we adding a mixture of reagent A (4 mM oPA, 50 mM boric acid, 1 M sulfuric acid, 0.03% Brij-35) and reagent B (4 mM NED, 50 mM boric acid, 1 M sulfuric acid, 0.03% Brij-35) in equal proportions. The absorbance was measured at 515 nm. The urea production in the absence of any tested compound was considered as maximal enzyme activity. The absorbance in the absence of arginase (background) was considered as zero activity. Two reference compounds OAT-81 (ABH, no. 222638-65-5) and OAT-90 (2-amino-6-borono-2-(2-(3-(2,4-dichlorophenyl)propyloamino)ethyl) hexanoic acid, and two novel inhibitors OAT-1617 and OAT-1746 (the last three synthesized at OncoArendi Therapeutics) were tested. Normalized values were analyzed using GraphPad Prism 7.0 software and the IC50 values were determined.

U87-MG glioma cells = test: Matrigel invasion assay, U87-MG co-cultured with BV2 microglia; format: cell-based, human
Procedure: BV2 cells were plated onto a 24-well plate at the density of 4×10^4. After 24 h, the invasion assay was performed with tissue culture inserts (6.5 mm Transwell® with 8.0 µm Pore Polycarbonate Membrane Insert, Corning, NY, USA) coated with the Growth Factor Reduced Matrigel™ Matrix (BD Biosciences, San Diego. CA, USA). The Matrigel™ Matrix (50 µL of 1 mg/mL stock solution diluted in fresh DMEM) was dried under sterile conditions (37°C) for 5–6 h. The medium in BV2 cultures was replaced with fresh one 1 h before seeding glioblastoma cells onto the inserts, then LN18 and U87 glioblastoma cells were seeded at 2×10^4/insert on Matrigel-covered membranes in a serum-reduced medium (2% FBS). Untreated glioblastoma cells co-cultured with or without BV2 cells served as positive and negative controls, respectively. Cells were treated with the arginase-1 inhibitors OAT-90, OAT-1617 and OAT-1746 solved in PBS. The cultures were kept in incubator at 37°C with humidified air containing 5% CO2. After 18 h cells were fixed in ice-cold methanol and cell nuclei stained with DAPI (4′,6-Diamidino-2-Phenylindole; 1 µg/mL, Sigma). The membranes from Transwell® inserts were cut out and images were acquired using a fluorescence microscope (Leica DM4000B, 10x lens) from the 5 independent fields (bottom; top; left; right side and the middle). Numbers of invading cells were counted using the ImageJ software (NIH, Bethesda, MD, USA). All experiments were performed three times, in duplicates.

[1] = tested on: U87-MG human glioma cells; test: MTT viability assay, U87-MG; format: cell-based; conditions: 24 h
Procedure: (§1) Cell viability was assessed using MTT metabolism assay (U87 and BV2 cells) or MTS CellTiter 96® AQueous One Solution Cell Proliferation Assay (Promega) for the primary murine microglia cultures. Cells were cultured either in 96-well plates (U87 at density of 1×10^4) or 24-well plates (BV2 at density of 4×10^4 and primary microglia 8×10^4) with the indicated concentrations of the inhibitor or H2O (vehicle) for 24 h. MTT solution (Sigma Aldrich) was added to each well to a final concentration of 0.5 mg/mL. After 1 h of incubation at 37°C, water-insoluble dark blue formazan crystals were dissolved in DMSO. Optical densities (OD) were measured at 570 and 620 nm using a scanning multiwell spectrophotometer. The MTT assay was performed according to the manufacturer’s protocol. All measurements were carried out on three independent cell passages, in triplicates.

primary murine microglia = test: Viability assay, primary microglia; format: cell-based, mouse; conditions: 24 h, concentrations up to 1000 µM
Procedure: as §1

[2] = tested on: L-arginine (substrate of arginase); test: L-arginine concentration in brain and plasma by LC-MS; format: in vivo, mouse; conditions: GL261-bearing mice, 50 mg/kg oral twice a day, day 14, 2 h after last dose
Procedure: Blood plasma, as well as the brain samples (from control and treated animals), were prepared for liquid chromatography coupled with mass spectrometry (LC-MS) by homogenization in 5% trichloroacetic acid (TCA) and the concentration of L-arginine – the substrate of arginase – was determined. In the urea cycle, arginase cleaves arginine to produce urea and ornithine. Ornithine reacts with carbamoyl phosphate to form citrulline. The brain homogenates prepared for arginine measurements, as well as plasma samples were also analyzed by LC-MS to determine the concentration of the drug, which was administered to animals 2 h before the euthanasia.

plasma cytokines = test: Plasma cytokine analysis (Milliplex/MAGPIX); format: in vivo, mouse; conditions: blood collected 2 h after last administration of OAT-1746
Procedure: Measurement of pro- and anti-inflammatory cytokines was performed in blood from control and treated animals. Blood was quickly collected to EDTA containing tubes before perfusion and centrifuged (10,000 × g) for 10 min at room temperature. The plasma was collected and stored at -80°C. The levels of cytokines were measured using the Milliplex Kit (Merk-Millipore, Germany) according to the protocol. Cytokine levels were determined using the MAGPIX Multiplexing Instrument (Luminex, TX, USA) with XPonent software and analyzed with Milliplex Analyst 5.1 software. Results were expressed as pg/mL for each cytokine.

ARG1/2 = tested on: ARG1/2; set-up: method as in PMID 31278254; conditions: cited from earlier work
human and murine T cells = tested on: human and murine T cells; set-up: method as in PMID 31278254; conditions: cited from earlier work
non-CNS tumor models = conditions: cited from earlier work

CN(C)C[C@@H]1CC[C@@H](CCB(O)O)C[C@]1(N)C(=O)O [OAT-1746]
pIC50 (recombinant human ARG1): 7.55 | microglia-induced invasion of U87-MG cells (U87-MG glioma cells; 11 µM, co-culture with BV2, 18 h): effectively reduced glioma invasion; also recorded: reduced microglia-induced invasion of glioma cells more efficiently | concentration dependence of the inhibitory effect on glioma invasion (U87-MG glioma cells; 0.1 and 11 µM, U87-MG with BV2): concentration-dependent | reduction of the cell viability in U87-MG glioma cells ([1]; 1 mM): 20% | viability of U87-MG cells (toxicity) ([1]; concentrations up to 1000 µM): a decrease in the viability of U87-MG cells was observed at the highest concentration | viability of primary murine microglia (toxicity) (primary murine microglia): not toxic | arginine concentration in the blood plasma [2]: increase of arginine concentration | arginine concentration in the brain [2]: increase of arginine concentration | plasma levels of CCL2 (plasma cytokines): higher levels | plasma levels of CCL5 (plasma cytokines): reduced | inhibition of ARG1/2 (ARG1/2): low nanomolar concentrations | ARG1-inhibited proliferation of human and murine T cells (human and murine T cells): reversed | antitumor efficacy in non-CNS tumor models (non-CNS tumor models): significant antitumor efficacy | toxicity in experimental animals (non-CNS tumor models; multiple oral dosing, mono- or combinatorial therapies, other tumor models): no toxicity
